PubChem BioAssay AID1902 (Broad Institute, 2009)
The source made the active and inactive calls.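 The calls were made as follows: active = EC50 no more than a set limit of log units above the highest dose; inactive = the rest.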

biological target: S. pyogenes SKKanGAS, kanamycin survival, BacTiterGlo, 6 h; assay: SKKanGAS survival reduction under kanamycin, dose response, streptokinase promoter inhibitor project, SKKanGAS strain, luminescence, dose confirmation (AID 1902);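 also: lower survival reflects blocked streptokinase promoter driving kanamycin resistance gene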

Row | Structure (SMILES) | EC50
1 | CC[C@H]1OC(=O)[C@H](C)[C@@H](O[C@H]2C[C@@](C)(OC)[C@@H](O)[C@H](C)O2)[C@H](C)[C@@H](O[C@@H]2O[C@H](C)C[C@H](N(C)C)[C@H]2O)[C@](C)(O)C[C@@H](C)C(=NOCOCCOC)[C@H](C)[C@@H](O)[C@]1(C)O | < 0.06 µM
2 | Cc1cccc(CC(Cc2nc3ccccc3[nH]2)c2nc3ccccc3[nH]2)c1 (stereo unspecified) | 9.88 µM
3 | CCn1c(O)c(/C=N/N=C/c2ccccc2)c2ccc(C3=NNC(=O)CC3)cc21 | 4.3 µM
4 | Cc1nnc(-c2cccc(Br)c2)c2cn(-c3ccc(Br)cc3)nc12 | 3.07 µM
5 | C=C1c2cccc(O)c2C(O)=C2C(=O)[C@]3(O)C(O)=C(C(N)=O)C(=O)[C@@H](N(C)C)[C@@H]3[C@@H](O)[C@H]12 | 0.093 µM
6 | CCOC(=O)c1c(NC(=S)NCCc2ccccc2)sc2c1CC(C(C)C)OC2 (stereo unspecified) | 0.602 µM
7 | CC/C(=C(\c1ccccc1)c1ccc(OCCN(C)C)cc1)c1ccccc1 | 6.17 µM
8 | CC1CCN(c2nc(-c3ccccc3)cc(C(F)(F)F)n2)CC1 | 4.58 µM
9 | CCOC(=O)c1c(N)sc(C(O)(C(F)(F)F)C(F)(F)F)c1-c1ccc(Cl)cc1 | 3.17 µM
10 | CC(Oc1ccc(Cl)cc1Cl)c1nc(-c2ccc(NC(=O)c3ccco3)cc2)no1 (stereo unspecified) | 5.82 µM
11 | O=c1c(O)c(-c2cccs2)oc2ccc(Cl)cc12 | 2.06 µM
12 | Cn1c(SCC(=O)Nc2cccc3ccccc23)nc(O)cc1=O | > 15 µM (inactive)
13 | CCCCCCC(=O)N/N=C/c1c(O)n(CCCC)c(=S)[nH]c1=O | 2.12 µM
14 | CC(/C=C1\SC(=O)N(CC(=O)Nc2ccc(O)cc2)C1=O)=C\c1ccccc1 | 8.02 µM
15 | OC(CNCc1ccco1)Cn1c2ccc(Br)cc2c2cc(Br)ccc21 (stereo unspecified) | 5.85 µM
16 | CN(C)c1ccc(C2C=C(c3ccc(Cl)cc3OC(F)F)Nc3ncnn32)cc1 (stereo unspecified) | 10.8 µM
17 | C/C(=N\NC(=O)c1ccc(Cl)c(Cl)c1)c1ccc(Br)s1 | 0.563 µM
18 | O=C(NNC(=S)NC(=O)c1ccco1)c1ccc(NC(=O)c2ccccc2)cc1 | 1.21 µM
19 | O=C(Nc1ccc(F)c(Cl)c1)Nc1csc2ccccc12 | 2.79 µM
20 | O=C(Nc1cccc(F)c1)N1CCCCCC1 | > 15 µM (inactive)
21 | NC(=O)N=Nc1c2[nH]c3ccccc3nc-2c2ccccc12 | 5.32 µM
22 | CCSc1nnc(NC(=O)c2ccc3ccccc3n2)s1 | 2.53 µM

Row | Structure (SMILES) | EC50
23 | CN1Cc2cc(C(=O)c3cc(Cl)cc(CSc4ncccn4)c3O)cnc2NC1=O | 9.39 µM
24 | O=C(NC(=S)N1CCN(c2nc(-c3ccccc3)cs2)CC1)c1cncc(Br)c1 | 1.2 µM
25 | CCC1CCCCN1c1cc(C)nc2cc(-c3cccc(C)c3)nn12 (stereo unspecified) | 6.59 µM
26 | c1ccc(CSC2=NNC(c3ccccn3)S2)cc1 (stereo unspecified) | 1.13 µM
27 | COc1cccc(/C=N/Nc2nc(Nc3ccc([N+](=O)[O-])cc3)nc(N3CCCC3)n2)c1O | 1.18 µM
28 | O=C(Nc1nc(-c2ccccn2)cs1)C1CC1 | 1.33 µM
29 | Cc1cccc(/C=C2\Sc3ccc(C(=O)N4CCC(C)CC4)cc3N(C)C2=O)c1 | 2.69 µM
30 | O=c1[nH]c(CN2CC=C(c3ccccc3)CC2)nc2scc(-c3ccccc3)c12 | 3.17 µM
31 | O=C(Nc1ccccc1Cc1ccccc1)c1ccccc1NS(=O)(=O)c1ccc(Cl)s1 | 0.59 µM
32 | CC(C)=CCC12Oc3cc(O)ccc3C1(O)Oc1cc(O)c([C@H]3C=C(C)CC(c4ccc(O)cc4O)[C@H]3C(=O)c3ccc(O)cc3O)c(O)c1C2=O (stereo partly specified) | 1.21 µM
33 | COc1ccc(S(=O)(=O)N/N=C(/C)c2ccncc2)cc1 | > 15 µM (inactive)
34 | O=C(NC(=S)Nc1ccccc1N1CCCCC1)c1ccc(F)cc1Cl | 3.4 µM
35 | COc1ccc(Nc2nc(NN)nc(Nc3ccc(OC)cc3)n2)cc1 | 6.02 µM
36 | CCCC(=O)NC(c1ccc(C(C)C)cc1)c1ccc2cccnc2c1O (stereo unspecified) | 5.54 µM
37 | O=C(Nc1nnc(-c2ccc3c(c2)CCCC3)o1)c1c(F)cccc1F | 0.612 µM
38 | O=C1/C(=C/c2cccnc2)SC(=NCc2ccccc2)N1Cc1ccccc1 | 8.09 µM
39 | Cc1ccc2nc(N3C(=O)C(O)=C(C(=O)c4cc5ccccc5o4)C3c3cccs3)sc2c1 (stereo unspecified) | 1.22 µM
40 | COc1ccccc1-c1cn[nH]c1-c1ccc(OCc2ccc(F)cc2)cc1O | 10.8 µM
41 | N#CC1=C(N)OC2=C(CCc3ccccc32)C1c1ccccc1Cl (stereo unspecified) | 3.82 µM
42 | CCOC(=O)c1sc(N2C(=O)C(O)=C(C(=O)c3ccco3)C2c2cccc(Cl)c2)nc1C (stereo unspecified) | 5.26 µM
43 | CCCc1sc(N/N=C/c2ccccn2)nc1-c1ccc(Br)cc1 | 0.241 µM
44 | CC(C)CC(=O)Nc1ccc(C(=O)NNC(=S)NC(=O)C2CCCCC2)cc1 | 1 µM

Row | Structure (SMILES) | EC50
45 | O=C1Nc2cc(C(=O)N3CCN(c4ccccn4)CC3)ccc2S/C1=C\c1ccccc1 | 3.35 µM
46 | C=C[C@]1(C)C[C@@H](OC(=O)CSCCN(CC)CC)[C@]2(C)C(C)CC[C@]3(CCC(=O)[C@H]32)[C@@H](C)[C@@H]1O (stereo partly specified) | < 0.06 µM
47 | COc1cccc(-c2nnc(Nc3nc4c(F)cccc4s3)o2)c1 | 0.502 µM
48 | COC12C(COC(N)=O)C3=C(C(=O)C(C)=C(N)C3=O)N1CC1C2N1C (stereo unspecified) | < 0.06 µM
49 | N#Cc1c(NC(=O)CSc2n[nH]c(Cc3ccccc3)n2)oc(-c2ccccc2)c1-c1ccccc1 | 4.93 µM
50 | Nc1nonc1-c1nc2ccccc2n1CC(=O)N/N=C/c1ccc(-c2cccc(C(=O)O)c2)o1 | 3.02 µM
51 | COc1ccccc1C(=O)NNC(=O)C(=O)Nc1cccc(Cl)c1C | 3.44 µM
52 | O=C(Nc1ccc(Br)c(C(F)(F)F)c1)c1ccc(C(F)(F)F)cc1 | 1.86 µM
53 | CCCCc1nc(N2CCN(C(=O)c3ccco3)CC2)c(C#N)c2c1CCCC2 | 6.45 µM
54 | CCCCCn1c(=O)c(C(=O)Nc2cnccn2)c(O)c2ccccc21 | 3.18 µM
55 | CCCCc1ccc(NC(=S)NCCc2ccc(F)cc2)cc1 | 5.7 µM
56 | O=[N+]([O-])c1cc(Br)c(O)c(/C=N/Nc2nnnn2-c2cccc3ccccc23)c1 | 5.44 µM
57 | COc1cc(NS(=O)(=O)c2ccc(C)cc2)c2ncccc2c1 | 0.777 µM
58 | O=C(O)c1cccc(N/N=C/C2=C(Cl)c3cc(Cl)ccc3SC2)c1 | 1.77 µM
59 | Cc1cccc2sc(NNC(=O)c3ccc(S(=O)(=O)N4CCCC(C)C4)cc3)nc12 (stereo unspecified) | 0.31 µM
60 | CC(C)(C)c1nc(NC(=O)Nc2ccccc2)sc1Br | 6.3 µM
61 | CCS(=O)(=O)N1Cc2ccccc2CC1C(=O)Nc1nnc(SCc2ccc(F)cc2)s1 (stereo unspecified) | 2.35 µM
62 | O=C(N/N=C\c1c(O)ccc2ccccc12)c1cncc(Br)c1 | 1.31 µM
63 | COC(=O)c1c(NC(NC(=O)C(C)(C)C)C(Cl)(Cl)Cl)sc2c1CCC2 (stereo unspecified) | 3.28 µM
64 | COc1ccc(C(=O)NCC(=O)OCC(=O)N2N=C(c3ccc(Cl)cc3)CC2c2ccco2)cc1OC (stereo unspecified) | 15.6 µM
65 | Cc1cccc2sc(NC(=O)c3ccc(NS(=O)(=O)c4cccs4)cc3)nc12 | 1.27 µM
66 | COc1ccc(C(=O)NC(=S)NNC(=O)c2ccc(C)cc2)cc1 | 0.137 µM

Row | Structure (SMILES) | EC50
67 | Cc1cc(=O)oc2c3c(cc(OCC(=O)NC4CC4)c12)OC(C)(C)CC3 | > 15 µM (inactive)
68 | CNC(=O)c1c(NC(=O)c2ccc(N3C(=O)CCC3=O)cc2)sc2c1CCC(C)C2 (stereo unspecified) | 15.7 µM
69 | S=c1[nH]nc(-c2cc(-c3ccccc3)n[nH]2)n1/N=C/c1ccc(Br)s1 | 5.22 µM
70 | Cc1ccc(Nc2nc(N)nc(CN3CCN(c4ccccc4)CC3)n2)cc1Cl | 13.2 µM
71 | CC(C)(O)c1[nH]c2cc(F)ccc2c1C(C)(C)O | 1.67 µM
72 | CC(C)(C)c1cc(C(=O)N/N=C/c2ccc([N+](=O)[O-])s2)n[nH]1 | 7.4 µM
73 | CCCC(=O)NC(c1ccc2c(c1)OCO2)c1cc(Cl)c2cccnc2c1O (stereo unspecified) | 1.17 µM
74 | O=[N+]([O-])c1ccc(-c2nc(-c3cccs3)c(-c3cccs3)[nH]2)cc1 | 9.57 µM
75 | COc1ccc(Br)cc1/C=C/c1ccc2cccc(O)c2n1 | 0.138 µM
76 | O=[N+]([O-])c1ccc(-c2nc(Nc3cccc(O)c3)c3ccccc3n2)cc1 | 10.7 µM
77 | COc1ccc(NC(=S)Nc2nc(CC(=O)Nc3ccccc3OC)cs2)cc1 | 8.89 µM
78 | Cc1cccc(CCNC(=O)CC2C(=O)NCCN2Cc2ccccc2C)n1 (stereo unspecified) | > 15 µM (inactive)
79 | CC(OC(=O)CC1CCCC1)C(=O)Nc1ccc(S(N)(=O)=O)cc1 (stereo unspecified) | > 15 µM (inactive)
80 | Cc1ccc(C)n1-c1sc2c(c1C#N)CCC(C)C2 (stereo unspecified) | 2.35 µM
81 | CN1CC(c2ccc(Cl)c(Cl)c2)[C@@]2(COc3ccccc3C2=O)[C@@]12C(=O)Nc1ccccc12 (stereo partly specified) | 1.43 µM
82 | Cc1onc(-c2c(F)cccc2Cl)c1C(=O)NCc1ccc2c(c1)OCO2 | > 15 µM (inactive)
83 | CCOC(=O)c1cc(-c2ccc(OC(F)F)cc2)nc2c1c(=O)[nH]c(=O)n2C | 0.392 µM
84 | CC(C)Sc1cc(N2CCCC2)nc(-c2ccccc2)n1 | 11.2 µM
85 | COc1ccc(/C=C/C(=O)NC(=S)NNC(=O)c2ccco2)cc1OC | 4.08 µM
86 | Cc1csc(Nc2ccc(Cl)cc2)[n+]1-c1ccc(Cl)cc1 | 11.1 µM
87 | COc1ccc(-c2cc3ncnc(Cl)c3s2)cc1 | 7.15 µM
88 | O=C(CP(=O)(c1ccccc1)c1ccccc1)N/N=C/c1cc(Br)cc(Br)c1O | 0.804 µM

Row | Structure (SMILES) | EC50
89 | COc1ccc(C2CC(c3cccs3)=NN2C(=O)c2ccc(Br)o2)cc1 (stereo unspecified) | 5.63 µM
90 | CCCc1sc(N/N=C/c2ccccn2)nc1-c1ccc(F)cc1 | 9.33 µM
91 | Cc1nn(C)c(C(=O)Nc2ccc(S(=O)(=O)NC34CC5CC(CC(C5)C3)C4)cc2)c1Br | 4.9 µM
92 | O=C1N/C(=N\N=C\c2cccnc2)SC1Cc1ccc(SC(F)F)cc1 (stereo unspecified) | 3.08 µM
93 | Cc1ccc2[nH]c(C(=O)N/N=C/c3ccccc3O)c(C)c2c1 | 1.67 µM
94 | Cc1ccccc1-n1cnc2cc(NCc3cccs3)ccc21 | 4.69 µM
95 | COc1ccccc1-c1nnc(Nc2nc3c(OC)cccc3s2)o1 | 0.803 µM
96 | Cc1[nH]n(-c2ccccc2)c(=O)c1N=Nc1c(O)cc(S(=O)(=O)N(C)C)c2ccccc12 | 1.1 µM
97 | O=C(COc1ccc(Cl)cc1)Nc1nnc(-c2ccc3c(c2)CCCC3)o1 | 0.369 µM
98 | COc1cc2nc(=S)n3[nH]c(COc4ccccc4C)nc3c2cc1OC | 2.28 µM
99 | CC(C)(C)[C@@H]1CCC(=O)N(CC[C@H](Sc2ccccc2)c2ccccc2)CC1 | 3.95 µM
100 | CCCCCCCCCCCCn1ccc(=N)cc1 | 4.1 µM
101 | Oc1ccccc1C1CCCCC1c1ccccc1 (stereo unspecified) | 3.9 µM
102 | CCCN(CC1CC1)c1nc(C)nc(Nc2c(Cl)cc(Cl)cc2Cl)c1Cl | 1.26 µM
103 | C/C(=N\Nc1ccc(C(=O)O)cc1)c1ccc2c(c1)Nc1ccccc1S2 | 2.45 µM
104 | CC(C)=CCc1c2c(c3occ(-c4ccc(O)cc4)c(=O)c3c1O)C=CC(C)(C)O2 | 0.876 µM
105 | COc1ccc(Cl)cc1NC(=O)CN1CCC(n2nnc3cc(C)ccc32)CC1 | 10.8 µM
106 | COc1cccc(/C=N/n2c(N)nc3ccccc32)c1OC | 5.93 µM
